The data set can be described thus: Characterisation of lipid nanoparticle formulations (size, PDI, mRNA encapsulation). Format: physicochemical. To be noted: lipid nanoparticle with FFL mRNA; Process A; Cationic Lipid:DMG-PEG2000:Cholesterol:DOPE 40:5:25:30 mol%; N/P 4. As for the experimental part: One exemplary process for lipid nanoparticle formulation is Process A of WO 2018/089801 (see, e.g., Example 1 and FIG. 1 of WO 2018/089801). Process A (“A”) relates to a conventional method of encapsulating mRNA by mixing mRNA with a mixture of lipids, without first pre-forming the lipids into lipid nanoparticles. In an exemplary process, an ethanol lipid solution and an aqueous buffered solution of mRNA were prepared separately. A solution of mixture of lipids (cationic lipid, helper lipids, zwitterionic lipids, PEG lipids etc.) was prepared by dissolving lipids in ethanol. The mRNA solution was prepared by dissolving the mRNA in citrate buffer. The mixtures were then both heated to 65° C. prior to mixing. Then, these two solutions were mixed using a pump system. In some instances, the two solutions were mixed using a gear pump system. In certain embodiments, the two solutions were mixing using a ‘T’ junction (or “Y” junction). The mixture was then purified by diafiltration with a TFF process. The resultant formulation concentrated and stored at 2-8° C. until further use. A second exemplary process for lipid nanoparticle formulation is Process B of WO 2018/089801 (see, e.g., Example 2 and the FIGURE of WO 2018/089801). Process B (“B”) refers to a process of encapsulating messenger RNA (mRNA) by mixing pre-formed lipid nanoparticles with mRNA. A range of different conditions, such as varying temperatures (i.e., heating or not heating the mixture), buffers, and concentrations, may be employed in Process B. In an exemplary process, lipids dissolved in ethanol and citrate buffer were mixed using a pump system. […] The resultant formulation mixture was empty lipid nanoparticles in citrate buffer containing alcohol. The formulation was then subjected to a TFF purification process wherein buffer exchange occurred. The resulting suspension of pre-formed empty lipid nanoparticles was then mixed with mRNA using a pump system. […] The lipid nanoparticle formulations of Table 5 were prepared by either Process A or B. Each formulation comprised mRNA encoding firefly luciferase protein (FFL mRNA) and lipids (Cationic Lipid: DMG-PEG2000; Cholesterol: DOPE) in the mol % ratios set forth in Table 5.
As for `CCCCCCC/C=C\C/C=C\CCCCC(O)CN(CCCC(=O)Oc1c(OC)cc(C(=O)OCCCN(C)C)cc1OC)CC(O)CCCC/C=C\C/C=C\CCCCCCC` (stereo not drawn) [Compound 7], the Encapsulation % came out at 95%, the PDI is listed as 0.429 and the “Size (nm)” value is 64.2 nm.

For the molecule `CCCCCCCCCCCCC(O)CN(CCCCC(=O)Oc1c(OC)cc(/C=C/C(=O)OCCCN(C)C)cc1OC)CC(O)CCCCCCCCCCCC` (stereo not drawn) [Compound 11], the Encapsulation % was determined as 98%, the PDI stood at 0.214 and the “Size (nm)” value is 44.0 nm.

Regarding `CCCCCCCCC(O)CN(CCCCC(=O)Oc1c(OC)cc(C(=O)OCCCN(C)C)cc1OC)CC(O)CCCCCCCC` (stereo not drawn) [Compound 9], the Encapsulation % is listed as 79%, the PDI was found to be 0.213 and the “Size (nm)” value is given as 42.3 nm.

Turning to `CCCCCCCCCCC(O)CN(CCCC(=O)Oc1ccc(C(=O)OCCCN(C)C)cc1CC)CC(O)CCCCCCCCCC` (stereo not drawn) [Compound 12], the Encapsulation % came out at 96%, the PDI was 0.173 and the “Size (nm)” value turned out to be 65.1 nm.

As for `CCCCCCCCCCCCC(O)CN(CCCC(=O)Oc1c(OC)cc(C(=O)OCCCN(C)C)cc1OC)CC(O)CCCCCCCCCCCC` (stereo not drawn) [Compound 5], the Encapsulation % is listed as 97%, the PDI was determined as 0.249 and the “Size (nm)” value was found to be 48.4 nm.

For the molecule `CCCCCCCCCCCCC(O)CN(CCCCC(=O)Oc1c(OC)cc(C(=O)OCCCN(C)C)cc1OC)CC(O)CCCCCCCCCCCC` (stereo not drawn) [Compound 6], the Encapsulation % was determined as 73%, the PDI was found to be 0.208 and the “Size (nm)” value worked out at 47.0 nm.

For `CCCCCCCCCCC(O)CN(CCCC(=O)Oc1c(OC)cc(/C=C/C(=O)OCCCN(C)C)cc1OC)CC(O)CCCCCCCCCC` (stereo not drawn) [Compound 8], the Encapsulation % was determined as 95%, the PDI turned out to be 0.193 and the “Size (nm)” value came to 43.3 nm.

Take `CCCCCCCCCCC(O)CN(CCCCC(=O)Oc1c(OC)cc(/C=C/C(=O)OCCCN(C)C)cc1OC)CC(O)CCCCCCCCCC` (stereo not drawn) [Compound 10]: the Encapsulation % came to 94%, the PDI is given as 0.213 and the “Size (nm)” value came to 43.3 nm.

For the molecule `CCCCCCCCC(O)CN(CCCC(=O)Oc1c(OC)cc(C(=O)OCCCN(C)C)cc1OC)CC(O)CCCCCCCC` (stereo not drawn) [Compound 1], the Encapsulation % was 94%, the PDI was determined as 0.235 and the “Size (nm)” value came out at 47.6 nm.

With `CCCCCCCCCCC(O)CN(CCCC(=O)Oc1c(OC)cc(C(=O)OCCCN(C)C)cc1OC)CC(O)CCCCCCCCCC` (stereo not drawn) [Compound 2], the Encapsulation % is 94%, the PDI stood at 0.251 and the “Size (nm)” value is 48.9 nm.

On to `CCCCCCCCC(O)CN(CCCCC(=O)Oc1c(OC)cc(C(=O)OCCCN(C)C)cc1OC)CC(O)CCCCCCCC` (stereo not drawn) [Compound 3], for which the Encapsulation % was found to be 89%, the PDI turned out to be 0.207 and the “Size (nm)” value is 40.3 nm.

Take `CCCCCCCCCCC(O)CN(CCCCC(=O)Oc1c(OC)cc(C(=O)OCCCN(C)C)cc1OC)CC(O)CCCCCCCCCC` (stereo not drawn) [Compound 4]: the Encapsulation % was 91%, the PDI is 0.198 and the “Size (nm)” value is given as 41.4 nm.
